In US7388004B2, “Acid-group-substituted diphenylazetidinones, process for their preparation, medicaments comprising these compounds, and their use” (Sanofi-Aventis Deutschland GmbH, priority 2002, dated 2008):

Test system: cholesterol absorption (uptake of 14C-cholesterol by the liver)
Experiment: Cholesterol absorption test: uptake of 14C-cholesterol by the liver after peroral test meal
Assay type: in vivo, NMRI mice
Conditions: dose at which uptake of 14C-cholesterol by the liver was halved (50%) vs control group, mouse
Source text: Effect of the compounds of the invention on cholesterol absorption and 3H-taurocholic acid excretion using fecal excrement of mice, rats or hamsters
NMRI mice, Wistar rats, or Golden Syrian hamsters (in groups of n=4-6) were kept in metabolic cages, where they were fed with a standard diet (Altromin, Lage (Lippe)). The afternoon prior to the administration of the radioactive tracers (14C-cholesterol), the feed was removed and the animals were adapted to grates.
Additionally, the animals were labeled s.c. with 3H-TCA (taurocholic acid) (for example 1 μCi/mouse up to 5 μCi/rat) 24 hours prior to the peroral administration of the test meal (14C-cholesterol in Intralipid® 20, Pharmacia-Upjohn).
Cholesterol absorption test: 0.25 ml/mouse Intralipid®D 20 (Pharmacia-Upjohn) ((spiked with 0.25 μCi of 14C-cholesterol in 0.1 mg of cholesterol) was administered perorally by gavage.
Test substances were prepared separately in 0.5% methylcellulose (Sigma)/5% Solutol (BASF, Ludwigshafen) or a suitable vehicle.
The administration volume of the test substance was 0.5 ml/mouse. The test substance was administered immediately prior to the test meal (Intralipid labeled with 14C-cholesterol) (cholesterol absorption test).
The feces were collected over a period of 24 h. Fecal elimination of 14C-cholesterol and 3H-taurocholic acid (TCA) was determined after 24 hours.
The livers were removed and homogenized, and aliquots were incinerated in an oximate (Model 307, Packard) to determine the amount of 14C-cholesterol that had been taken up/absorbed.
The amount of-14C-cholesterol taken up by the liver was based on the administered dose. The ED50 values were interpolated from a dose-effect curve as the dose at which the uptake of 14C-cholesterol by the liver was halved (50%), based on a control group.

Question: With `COc1ccc(C2C(CCC(O)c3ccc(F)cc3)C(=O)N2c2ccc(CNC(=O)CCCCCCCCCCC(=O)O)cc2)cc1` (stereo not shown) [XIII, 11-{4-[3-[3-(4-Fluorophenyl)-3-hydroxypropyl]-2-(4-methoxyphenyl)-4-oxoazetidin-1-yl]benzylcarbamoyl}undecanoic acid] as the molecule, how does the “ED50 (liver)” value read?
Answer: <0.1 mg/mouse

Question: How did the “ED50 (liver)” value turn out when `COc1ccc(C2C(CCC(O)c3ccc(F)cc3)C(=O)N2c2ccc(CNCCCCS(=O)(=O)O)cc2)cc1` (stereo not shown) [I, 4-{4-[3-[3-(4-Fluorophenyl)-3-hydroxypropyl]-2-(4-methoxyphenyl)-4-oxoazetidin-1-yl]benzylamino}butane-1-sulfonic acid] was run?
Answer: 1.0 mg/mouse

Question: `O=C(O)CCC(=O)NCc1ccc(C2C(CCC(O)c3ccc(F)cc3)C(=O)N2c2ccc(F)cc2)cc1` (stereo not shown) [X, N-(4-{1-(4-Fluorophenyl)-3-[3-(4-fluorophenyl)-3-hydroxypropyl]-4-oxoazetidin-2-yl}benzyl)succinaminic acid] was tested. Which “ED50 (liver)” value did it give?
Answer: <1.0 mg/mouse

Question: How did the “ED50 (liver)” value turn out when `O=C(CS(=O)(=O)O)NCc1ccc(C2C(CCC(O)c3ccc(F)cc3)C(=O)N2c2ccc(F)cc2)cc1` (stereo not shown) [VIII, (4-{1-(4-Fluorophenyl)-3-[3-(4-fluorophenyl)-3-hydroxypropyl]-4-oxoazetidin-2-yl}benzylcarbamoyl)methanesulfonic acid] was run?
Answer: 0.3 mg/mouse

Question: `O=C1C(CCC(O)c2ccc(F)cc2)C(c2ccc(OCCCCNCCCCCCOP(=O)(O)O)cc2)N1c1ccc(F)cc1` (stereo not shown) [IV, Phosphoric acid mono{6-[4-(4-{1-(4-fluorophenyl)-3-[3-(4-fluorofluorophenyl)-3-hydroxypropyl]-4-oxoazetidin-2-yl}phenoxy)butylamino]hexyl}ester] was tested. Which “ED50 (liver)” value did it give?
Answer: 0.3 mg/mouse

Question: Which “ED50 (liver)” value does the source give for `COc1ccc(C2C(CCC(O)c3ccc(F)cc3)C(=O)N2c2ccc(CNC(=O)CS(=O)(=O)O)cc2)cc1` (stereo not shown) [IX, {4-[3-[3-(4-Fluorophenyl)-3-hydroxypropyl]-2-(4-methoxyphenyl)-4-oxoazetidin-1-yl]benzylcarbamoyl}methanesulfonic acid] here?
Answer: <1.0 mg/mouse

Question: With `COc1ccc(C2C(CCC(O)c3ccc(F)cc3)C(=O)N2c2ccc(OCCCCN(C)CCS(=O)(=O)O)cc2)cc1` (stereo not shown) [II, 2-[(4-{4-[3-[3-(4-Fluorophenyl)-3-hydroxypropyl]-2-(4-methoxyphenyl)-4-oxoazetidin-1-yl]phenoxy}butyl)methylamino]ethylsulfonic acid] as the molecule, how does the “ED50 (liver)” value read?
Answer: >0.1 mg/mouse
